# Source: ChEMBL document CHEMBL1132172, “Synthesis of a series of stromelysin-selective thiadiazole urea matrix metalloproteinase inhibitors” (J Med Chem, 1999)
# Biological target: T1, Interstitial collagenase (Homo sapiens, UniProt P03956)
# T1 sequence (P03956 whole entry): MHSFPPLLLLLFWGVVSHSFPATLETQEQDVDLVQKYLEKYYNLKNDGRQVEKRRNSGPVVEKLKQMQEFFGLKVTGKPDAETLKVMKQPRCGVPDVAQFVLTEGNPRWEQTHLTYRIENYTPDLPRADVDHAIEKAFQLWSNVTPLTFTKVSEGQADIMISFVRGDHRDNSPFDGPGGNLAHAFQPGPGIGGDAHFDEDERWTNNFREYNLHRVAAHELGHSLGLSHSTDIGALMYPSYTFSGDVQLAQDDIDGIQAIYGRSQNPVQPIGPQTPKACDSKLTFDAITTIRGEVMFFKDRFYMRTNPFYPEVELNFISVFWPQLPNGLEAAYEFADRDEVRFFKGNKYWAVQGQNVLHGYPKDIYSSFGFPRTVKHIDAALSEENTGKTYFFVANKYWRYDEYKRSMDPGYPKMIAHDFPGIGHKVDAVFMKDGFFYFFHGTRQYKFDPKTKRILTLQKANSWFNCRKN
# Description: Binding affinity for matrix metalloprotease-1
row,Ki,Compound
1,31 µM,CNC(=O)[C@H](Cc1ccccc1)NC(=O)Nc1nnc(S)s1
2,> 200 µM,CNC(=O)[C@H](CC(C)C)NC(=O)Nc1nnc(S)s1
3,> 200 µM,CNC(=O)[C@H](CO)NC(=O)Nc1n[nH]c(=S)s1
4,6 µM,COc1ccc(N2CCN(C(=O)[C@H](Cc3ccccc3)NC(=O)Nc3nnc(S)s3)CC2)cc1
5,6.2 µM,COc1ccc(CNC(=O)[C@H](Cc2ccccc2)NC(=O)Nc2nnc(S)s2)cc1OC
6,12 µM,O=C(Nc1nnc(S)s1)N[C@@H](Cc1ccccc1)C(=O)N1CCSCC1
7,> 200 µM,O=C(Nc1nnc(S)s1)N[C@@H](Cc1ccccc1)C(=O)O
8,20 µM,O=C(Nc1nnc(S)s1)N[C@@H](Cc1ccccc1)C(=O)N1CCCC1
9,3 µM,CNC(=O)[C@H](Cc1c(F)c(F)c(F)c(F)c1F)NC(=O)Nc1nnc(S)s1
10,29 µM,O=C(Nc1nnc(S)s1)N[C@@H](Cc1ccccc1)C(=O)N1CCN(Cc2ccccc2)CC1
11,1.5 µM,O=C(Nc1nnc(S)s1)N[C@@H](Cc1ccccc1)C(=O)N1CCN(c2ccccn2)CC1
12,21 µM,CNC(=O)[C@H](Cc1ccc(O)cc1)NC(=O)Nc1nnc(S)s1
13,> 200 µM,O=C(Nc1nnc(S)s1)N[C@@H](Cc1ccccc1)C(=O)NCC1CCCCC1
14,16 µM,CNC(=O)[C@H](Cc1ccc(OC)cc1)NC(=O)Nc1nnc(S)s1
15,1.8 µM,O=C(Nc1nnc(S)s1)N[C@@H](Cc1ccc(F)cc1)C(=O)N1CCN(c2ccccn2)CC1
16,0.77 µM,O=C(Nc1nnc(S)s1)N[C@@H](Cc1c(F)c(F)c(F)c(F)c1F)C(=O)N1CCN(c2ccccn2)CC1
17,17 µM,COC(=O)[C@H](Cc1ccccc1)NC(=O)Nc1nnc(S)s1
18,> 200 µM,NC(=O)[C@H](Cc1ccccc1)NC(=O)Nc1nnc(S)s1
19,16 µM,O=C(Nc1nnc(S)s1)N[C@@H](Cc1ccccc1)C(=O)N1CCN(c2ncccn2)CC1
20,15 µM,O=C(Nc1nnc(S)s1)N[C@@H](Cc1ccccc1)C(=O)NCc1ccccc1
21,> 200 µM,CNC(=O)[C@@H](Cc1ccccc1)NC(=O)Nc1n[nH]c(=S)s1
22,67 µM,CNC(=O)[C@H](CC1CCCCC1)NC(=O)Nc1n[nH]c(=S)s1
23,41 µM,CNC(=O)[C@@H](NC(=O)Nc1n[nH]c(=S)s1)c1ccccc1
24,> 100 µM,CNC(=O)CNC(=O)Nc1n[nH]c(=S)s1
25,226 µM,CN(C)C(=O)[C@H](Cc1ccccc1)NC(=O)Nc1nnc(S)s1
26,52 µM,CNC(=O)[C@H](COCc1ccccc1)NC(=O)Nc1nnc(S)s1
27,8.9 µM,CNC(=O)[C@H](Cc1ccc(F)cc1)NC(=O)Nc1nnc(S)s1
28,32 µM,O=C(Nc1nnc(S)s1)N[C@@H](Cc1ccccc1)C(=O)N1CCOCC1
29,15 µM,CNC(=O)[C@H](Cc1ccc([N+](=O)[O-])cc1)NC(=O)Nc1nnc(S)s1

# Biological target: Stromelysin-1 (Homo sapiens, UniProt P08254)
# Sequence (P08254 whole entry): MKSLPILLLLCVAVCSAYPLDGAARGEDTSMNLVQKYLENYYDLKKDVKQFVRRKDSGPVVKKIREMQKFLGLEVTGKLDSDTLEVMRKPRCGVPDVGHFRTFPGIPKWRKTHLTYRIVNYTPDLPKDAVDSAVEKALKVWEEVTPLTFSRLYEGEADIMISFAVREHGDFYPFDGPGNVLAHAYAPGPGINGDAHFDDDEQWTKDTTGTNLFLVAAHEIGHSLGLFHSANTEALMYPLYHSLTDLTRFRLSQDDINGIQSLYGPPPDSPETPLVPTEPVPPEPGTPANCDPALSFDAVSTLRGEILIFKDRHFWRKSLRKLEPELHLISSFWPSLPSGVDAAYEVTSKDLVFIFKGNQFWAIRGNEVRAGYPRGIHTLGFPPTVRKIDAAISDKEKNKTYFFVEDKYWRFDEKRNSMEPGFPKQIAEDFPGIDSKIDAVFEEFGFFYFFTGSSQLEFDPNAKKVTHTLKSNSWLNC
# Description: Inhibitory concentration against Matrix metalloprotease-3
row,IC50,Compound
1,97 µM,Sc1nnc(NCc2ccccc2)s1
2,> 2000 µM,O=C(NCc1ccccc1)Nc1nncs1
3,23 µM,O=C(NCc1cccc2ccccc12)Nc1nnc(S)s1
4,190 µM,Sc1nnc(Nc2ccccc2)s1
5,29 µM,O=C(Nc1ccc(F)cc1)Nc1nnc(S)s1
6,318 µM,Sc1nnc(NCCCCc2ccccc2)s1
7,47 µM,Sc1nnc(NCCc2ccccc2)s1
8,> 1000 µM,CCN(C(=O)NCCc1ccccc1)c1nnc(S)s1
9,694 µM,Cn1nc(NC(=O)NCCc2ccccc2)sc1=S
10,289 µM,Sc1nnc(NCc2ccco2)s1
11,> 2000 µM,CCNc1nnc(S)s1
12,34 µM,O=C(NCCCCc1ccccc1)Nc1nnc(S)s1
13,173 µM,Cc1cccc(Cl)c1Nc1nnc(S)s1
14,99 µM,O=C(Nc1ccccc1)Nc1nnc(S)s1
15,97 µM,CCCCCCCCCCCCNc1nnc(S)s1
